Data: paper PMC5976192, “Design of a glutamine substrate tag enabling protein labelling mediated by Bacillus subtilis transglutaminase” (PLoS ONE, 2018)

Molecular target: T1, bTG (Bacillus subtilis transglutaminase) (Bacillus subtilis, UniProt P40746)
T1 construct: gene tgl; recombinant, expressed in E. coli in active form and purified; about 28 kDa; construct details only in S1 File
T1 sequence (P40746 1-245): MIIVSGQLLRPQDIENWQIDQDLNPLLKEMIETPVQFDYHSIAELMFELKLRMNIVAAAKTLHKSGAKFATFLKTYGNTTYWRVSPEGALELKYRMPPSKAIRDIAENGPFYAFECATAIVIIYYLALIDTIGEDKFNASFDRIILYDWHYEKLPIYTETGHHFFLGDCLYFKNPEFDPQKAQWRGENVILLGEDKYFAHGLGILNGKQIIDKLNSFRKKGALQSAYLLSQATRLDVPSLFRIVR
Experiment: GDH-coupled assay; fluorescent labelling on SDS-PAGE
Type: biochemical
Settings: acyl acceptor at 5 mM; 0.8 μM Q-tagged mRuby2 as acyl donor; 0.1 U bTG; 20 min; gel labelling 3 h at 37 °C; initial rates only

SMILES: CN(C)c1cccc2c(S(=O)(=O)NCCCCCN)cccc12 [dansyl-cadaverine]
- GDH-coupled assay; fluorescent labelling on SDS-PAGE: initial rates of transamidation between Q-tagged mRuby2 and dansyl-cadaverine were measured using the GDH-coupled assay
